Data taken from patent publication US20050148634A1, “1-N-Aminobenzimidazole derivatives” (ZERIA PHARMACEUTICAL CO., LTD, priority 2002, published 2005).
Structures can show the parent of a compound that is named as a salt.

Key:
[1] = target: T1, H+/K+-ATPase (Sus scrofa, UniProt P19156); assay: Test 1 proton pump inhibitory effect: H+/K+-ATPase enzyme inhibiting activity at pH 1; assay type: biochemical; settings: swine stomach enzyme sample; test compound pretreated in pH 1 hydrochloric acid solution with 50% DMSO for 15 minutes; ATP substrate
T1 construct: An interface fraction obtained by the centrifugation was collected; from tissue; host or cells: swine stomach mucosal layer, membrane fraction from the sucrose interface
T1 sequence (P19156 2-1034 limits assumed): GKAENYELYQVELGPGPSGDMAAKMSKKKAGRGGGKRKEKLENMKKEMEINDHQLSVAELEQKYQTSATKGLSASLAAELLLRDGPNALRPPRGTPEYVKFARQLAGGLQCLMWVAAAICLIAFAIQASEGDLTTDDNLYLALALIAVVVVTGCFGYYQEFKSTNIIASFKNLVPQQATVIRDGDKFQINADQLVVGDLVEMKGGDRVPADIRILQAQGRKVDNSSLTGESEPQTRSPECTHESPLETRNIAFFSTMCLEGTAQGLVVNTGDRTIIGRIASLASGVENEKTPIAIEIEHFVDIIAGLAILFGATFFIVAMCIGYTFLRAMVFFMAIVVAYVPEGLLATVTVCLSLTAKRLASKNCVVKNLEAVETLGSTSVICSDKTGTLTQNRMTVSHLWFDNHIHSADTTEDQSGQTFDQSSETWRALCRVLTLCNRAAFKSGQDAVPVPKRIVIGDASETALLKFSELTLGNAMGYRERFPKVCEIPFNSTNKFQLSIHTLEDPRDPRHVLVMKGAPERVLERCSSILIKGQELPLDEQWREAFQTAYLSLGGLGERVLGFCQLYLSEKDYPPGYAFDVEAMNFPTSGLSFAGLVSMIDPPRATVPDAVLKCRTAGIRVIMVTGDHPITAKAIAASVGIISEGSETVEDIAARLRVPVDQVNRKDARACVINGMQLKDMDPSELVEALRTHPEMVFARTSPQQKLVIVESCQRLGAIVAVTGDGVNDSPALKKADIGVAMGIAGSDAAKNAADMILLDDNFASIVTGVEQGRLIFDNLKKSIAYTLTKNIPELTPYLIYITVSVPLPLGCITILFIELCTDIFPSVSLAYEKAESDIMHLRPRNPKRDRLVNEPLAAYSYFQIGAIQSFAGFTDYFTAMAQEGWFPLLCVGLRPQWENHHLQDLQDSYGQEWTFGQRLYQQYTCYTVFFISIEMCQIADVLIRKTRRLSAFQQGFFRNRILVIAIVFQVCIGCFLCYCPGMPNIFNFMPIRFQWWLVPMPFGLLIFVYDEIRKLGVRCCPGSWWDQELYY
T1 sequence (P18434 whole entry partner): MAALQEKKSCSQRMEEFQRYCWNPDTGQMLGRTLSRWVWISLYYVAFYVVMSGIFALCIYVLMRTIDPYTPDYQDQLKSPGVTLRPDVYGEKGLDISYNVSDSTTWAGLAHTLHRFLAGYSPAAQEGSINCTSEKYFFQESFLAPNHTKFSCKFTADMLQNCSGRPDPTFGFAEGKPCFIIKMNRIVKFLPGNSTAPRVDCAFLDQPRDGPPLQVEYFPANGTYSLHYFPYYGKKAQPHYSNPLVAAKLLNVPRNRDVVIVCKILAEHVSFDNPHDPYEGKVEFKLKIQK
Method: Test 1 (Proton Pump Inhibitory Effect)
(1) Preparation of H^+/K^+-ATPase Enzyme Sample
A swine stomach which had been stored frozen was separated into a muscularis and a mucosal layer. After the mucosal layer was disrupted with a mixer in 5 volumes of 20 mmol/L tris-HCl buffer containing 0.25 mol/L of sucrose and 1 mmol/L of EGTA (pH 7.4, hereafter abbreviated as “tris-HCl buffer”), centrifugation was conducted at 9,000×g for 30 minutes. The supernatant was gently overlaid on 20 mmol/L tris-HCl buffer containing 30% of sucrose and 1 mmol/L of EGTA (pH 7.4, 8 mL), followed by ultracentrifugation at 100,000×g for 60 minutes. An interface fraction obtained by the centrifugation was collected and subjected to centrifugation twice under 113,000×g for 60 minutes. The sediment was suspended with tris-HCl buffer, and the suspension was homogenized at low rotational speed to provide an enzyme sample. The enzyme sample was stored frozen at −80° C. Using the method reported by Smith et al. (Anal. Biochem., 150, 76-85 (1985)), the thus-obtained sample was quantitatively analyzed for its protein content with a BCA protein assay reagent. The above procedure was all conducted under water cooling.
(2) Discussion about H+/K^+-ATPase Enzyme Inhibiting Activity at pH 1
Following a method making use of a method for the quantitation of inorganic phosphorus as a degradation product (Biochem. Biophys. Res. Commun., 40, 880-886 (1970)), an assay of H^+/K^+-ATPase enzyme inhibiting activity was performed by using ATP as a substrate. As a hydrochloric acid solution for the pretreatment of each test compound, a 1×10^−1 mol/L (pH 1) solution of hydrochloric acid with 50% DMSO contained therein was used. Solutions of each test compound at various concentrations were added to aliquots of the hydrochloric acid solution such that the solutions were diluted 1,000-fold, and the thus-diluted solutions were left over at room temperature for 15 minutes. […] 840-μL Aliquots of an enzyme solution (5 μg proteins) diluted with the TE buffer were then added. After incubated at 37° C. for 30 minutes, 50-μL aliquots of 40 mmol/LATP solution (dissolved in the TE buffer free of KCl) were added to initiate an enzymatic reaction (total volume: 1 mL, final ATP concentration: 2 mmol/L). Subsequent to incubation at 37° C. for 30 minutes, 2-mL aliquots of ice-cold 12% trichloroacetic acid were added to terminate the enzymatic reaction. A molybdenum reagent (1 mL; 3.75% ammonium molybdate/1.5 mol/L sulfuric acid) and butyl acetate (5 mL) were added. After vigorous shaking and mixing for 5 minutes, the absorbance of a butyl acetate layer was measured at 310 nm. From absorbances obtained by dissolving KH2PO4 solutions of various concentrations in aliquots of an 8% TCA solution and performing a similar procedure, a standard curve was prepared to perform a conversion of each quantity of inorganic phosphorus. The assay was conducted in duplicate. From a difference between an average quantity of inorganic phosphorus in the case of the KCl-containing TE buffer and an average quantity of inorganic phosphorus in the case of the KCl-free TE buffer, a residual activity was determined. Supposing that the activity of the control value (DMSO) was 100%, the percent inhibition of the compound was calculated. As the inhibition potency of each test compound, an IC50 value was calculated and presented. The test compounds were al used by dissolving them in dimethyl sulfoxide immediately before their use.

[2] = tested on: histamine-stimulated gastric acid secretion; assay: Test 2 gastric acid secretion inhibitory effect, acute fistula method; assay type: in vivo, Sprague-Dawley (SD) rats; settings: male SD rats, administered into the duodenum; total gastric acid secreted on 3rd-5th hours; Probit method
Method: Test 2 (Gastric Acid Secretion Inhibitory Effect)
(1) As laboratory animals, seven-week old male Sprague-Dawley (SD) rats were purchased from CHARLES RIVER JAPAN, INC. Subsequent to preliminary rearing for 5 days or longer, they were used in an experiment.
Each test medicine was suspended or dissolved in a 0.5% carboxymethylcellulose sodium solution to prepare a volume of 2.5 mL/kg.
(2) Measurement of Gastric Acid Secretion
Using rats fasted for 18 hours, histamine-stimulated gastric acid secretion in an acute fistula method following the method reported by Hiramatsu et al. (Dig. Dis. Sci., 39, 689-697 (1994)) was measured. Described specifically, each rat was lightly anesthetized with diethyl ether. After that, a winged tube needle with 3.8% citric acid solution filled therein was caused to dwell in the caudal vein. Celiotomy was performed, and the pyloric part of the stomach was ligated. A small hole was then formed in the duodenum, and a feeding tube with physiological saline filled therein was caused to dwell there. After the interior of the stomach was washed with physiological saline, a polyethylene-made fistula tube (inner diameter: 4 mm) was fitted to the proventriculus part and an incised part of the proventriculus was ligated to hold the fistula tube in place. The stomach and duodenum were returned into the abdominal cavity. Celiotomy was performed with the fistula tube and feeding tube being left extending outside, and the rat was placed in a Ballman Cage Type II. Histamine was continuously injected through the winged needle allowed to dwell in the caudal vein (8 mg/kg/h, 1.38 mL/h). Fifteen minutes later, the gastric juice was sampled, and after that, the gastric juice was sampled at intervals of 1 hour. After the amount of each gastric juice sample was recorded, it was titrated with 0.1 mol/L NaOH to a final point of pH 7.0. From the volume required for the titration, the acidity was calculated. The quantity of the secreted gastric acid was determined from the product of the amount of the gastric juice and the acidity. Incidentally, the rats were divided into groups such that the total amount of the first gastric juice samples became equal in each group. Each test medicine was administered in a volume of 2.5 mL/kg into the duodenum through the feeding tube fitted beforehand in the duodenum. To a control group, 0.5% Na—CMC solution was administered.
(3) Analysis of the Results
From the results so obtained, data were presented in terms of average ±S.D. The sum of quantities of gastric acid secreted on the 3rd, 4th and 5th hours after the first sampling was recorded as a total quantity of secreted gastric acid. The percent inhibition in each group was calculated from the total quantity of secreted gastric acid in the control group and the total quantity of secreted gastric acid in the group. From the percent inhibition in each group, the 50% effective dose (ED50) was next calculated by the Probit method.

[3] = target: T2, human CYP2C19 (Homo sapiens, UniProt P33261); assay: Test 3 human CYP2C19 activity inhibition test (S-(+)-mephenyloin to 4'-hydroxymephenyloin); assay type: in vitro ADME; settings: test compound 10 μM; microsomes from human CYP2C19 expression system; formed 4'-hydroxymephenyloin compared with control
T2 construct: purchased Sumitomo Chemical Co., Ltd
T2 sequence (P33261 whole entry): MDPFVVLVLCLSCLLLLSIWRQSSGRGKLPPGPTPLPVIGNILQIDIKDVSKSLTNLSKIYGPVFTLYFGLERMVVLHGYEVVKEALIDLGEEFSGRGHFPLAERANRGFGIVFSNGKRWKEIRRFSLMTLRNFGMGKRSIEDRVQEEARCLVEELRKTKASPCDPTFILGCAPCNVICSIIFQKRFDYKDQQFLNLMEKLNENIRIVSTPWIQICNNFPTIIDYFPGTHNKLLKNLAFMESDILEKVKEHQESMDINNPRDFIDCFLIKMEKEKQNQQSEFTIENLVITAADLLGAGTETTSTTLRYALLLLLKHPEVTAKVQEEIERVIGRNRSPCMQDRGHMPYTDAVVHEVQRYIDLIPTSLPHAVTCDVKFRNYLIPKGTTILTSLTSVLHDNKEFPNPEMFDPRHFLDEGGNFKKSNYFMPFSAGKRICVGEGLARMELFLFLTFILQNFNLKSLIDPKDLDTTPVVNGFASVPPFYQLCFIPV
Method: Test 3 (Human CPY2C19 Activity Inhibition Test)
CYP2C19 specifically induces the metabolic reaction of from S-(+)-mephenyloin into 4′-hydroxymephenyloin. Using the CYP2C19 expression system, the inhibitory effect of each test substance was investigated based on the amount (concentration) of formed 4′-hydroxymephenylion as an index of CYP2C19 activity.
a) Metabolic Activity Test
As a reaction mixture, a 125 μmol/L solution of S-(+)-mephenyloin in methanol (50 μL) and a 25 μmol/L solution of each test substance in methanol (0, 10, 100 or 200 μL) were added to 10-mL test tube made of glass, and the solvent was distilled off under a nitrogen gas stream (40° C.).
After incubated at 37° C. for 10 minutes, a 12% aqueous solution of perchloric acid (50 μL) was added to terminate the reaction.
Subsequent to the termination of the reaction, 10 μg/mL methyl p-hydroxybenzoate (50 μL) as an internal standard (I.S.) and diethyl ether (2 mL) were added. The resulting mixture was shaken for 10 minutes, and then centrifuged (3,000 rpm, 10 minutes). The organic layer was separately collected, and under a nitrogen gas stream (40° C.), the solvent was distilled off. The residue was dissolved in a mobile phase (200 μL), and an analysis was conducted by high performance liquid chromatography (HPLC).
Using a solution of 4′-hydroxymephenyloin in lieu of the S-(+)-mephenyloin solution, a calibration line was prepared following the above-described reaction method. Quantitation was conducted based on a peak area ratio of 4′-hydroxymephenyloin to the I.S. Comparing the formed amount of 4′-hydroxymephenyloin as a control with that of 4′-hydroxymephenyloin at the time of the existence of the test compound, the comparison result was used as an index of activity.
HPLC was conducted under the following HPLC conditions A or HPLC conditions B. […]

Compound	IC50 [1] [µM]	melting point [°C]	other results
Cc1c(OCC(F)(F)F)ccnc1C[S+]([O-])c1nc2ccccc2n1NCC(O)c1ccccc1 (mixture of isomers) [Example 51]	3.32	–	Gastric acid secretion inhibitory effect ED50 [2]: 2.4 mg/kg
Cc1c(OCC(F)(F)F)ccnc1C[S+]([O-])c1nc2ccccc2n1NCc1ccccc1 (racemic) [Example 49]	1.03	–	–
Cc1c(OCC(F)(F)F)ccnc1C[S+]([O-])c1nc2ccccc2n1NCCc1ccccc1 (racemic) [Example 50]	0.87	–	–
Cc1c(OCC(F)(F)F)ccnc1C[S+]([O-])c1nc2ccccc2n1NCCCCCO (racemic) [Example 54]	3.88	–	–
C=CCNn1c([S+]([O-])Cc2nccc(OCC(F)(F)F)c2C)nc2ccccc21 (racemic) [Example 64]	2.28	–	–
Cc1c(OCC(F)(F)F)ccnc1C[S+]([O-])c1nc2ccccc2n1N (single isomer, unassigned; (+)) (as salt: tartrate) [(+) isomer of Example 1, (+)-1-Amino-2-[[4-(2,2,2-trifluoroethoxy)-3-methylpyridin-2-yl]methylsulfinyl]benzimidazole]	–	111 to 113	–
CBc1cc(C)nc(C[S+]([O-])c2nc3ccccc3n2N)c1 (stereo not drawn) [Example 7]	–	130 to 133	–
Cc1c(OCC(F)(F)F)ccnc1C[S+]([O-])c1nc2cc(OC(F)F)ccc2n1N (stereo not drawn) [Example 68]	3.2	194 to 195	–
COc1ccc2nc([S+]([O-])Cc3ncc(C)c(OC)c3C)n(N)c2n1 (stereo not drawn) [Example 78]	–	174 to 175	CYP2C19 activity inhibition (%) [3]: 62%
